PMC12114947, “Evaluation of Violacein Metabolic Stability and Metabolite Identification in Human, Mouse, and Rat Liver Microsomes” (Pharmaceutics, 2025)
pIC50: −log10 of the molar value. Converted amounts (≈) assume the structure as drawn.

How the values were obtained:
parasitemia = test system: parasitemia; parameters: method as in PMID 19273690; conditions: C57BL/6 mice, three consecutive days, 3.75 mg/kg/day; cited from earlier work
Trichophyton rubrum = test system: Trichophyton rubrum; parameters: method as in PMID 26428920; conditions: cited from earlier work
Candida albicans = test system: Candida albicans; parameters: method as in PMID 26428920; conditions: cited from earlier work
Caco-2 cells = test system: Caco-2 cells; parameters: method as in PMID 16889929; conditions: cited from earlier work
in vitro = in vitro ADME; conditions: human
Protocol: The metabolic stability of volacein was assessed as described by Godoi et al. and Antunes et al.. Aliquots (4 µL) of 100 µM violacein working solution and 96 µL of the NADPH-regenerating system, containing 1.1 mM NADP^+, 10 mM glucose-6-phosphate, 1 U/mL glucose-6-phosphate dehydrogenase, 5 mM sodium citrate, and 66 mM magnesium chloride in 100 mM phosphate buffer, pH 7.4, were transferred to propylene tubes and pre-incubated for 5 min in an MTC 100 thermo shaker incubator (Miulab, Zhejiang, China) at 300 rpm and 37 °C. Subsequently, the metabolic reactions were initiated by adding 100 μL of microsomal proteins from HLMs, RLMs, and MLMs at a concentration of 2 mg/mL to the pre-incubated shaking tubes, resulting in final concentrations of 2 μM for violacein and 1 mg/mL for microsomal proteins. In this experiment, seven incubation times were planned for each species (0, 3, 5, 15, 30, 60, and 120 min), in triplicate. At each time interval, the reactions were stopped by adding 400 μL of ice-cold acetonitrile spiked with 10 µM omeprazole (IS) to each tube. Finally, the samples were vortexed for 5 min in a BenchMixer^TM XL (Benchmark, NJ, USA) and centrifuged at 12,000× g for 15 min at 4 °C (Hettich® Universal 320 R, Tuttlingen, Germany). The supernatants were transferred to a 96-well plate and 8 μL was injected into the LC-MS/MS system (see Section 2.3).
All incubations were performed simultaneously with positive and negative controls. The positive controls were prepared by incubating dapaconazole at the same conditions as violacein (final concentrations: 2 μM) and its metabolic stability was compared with previous studies. Similarly, the negative controls were prepared by incubating violacein in buffer solution, in the absence of microsome and cofactor solutions.
Violacein was analyzed using LC-MS/MS (LC-QQQ MS, LCMS8045, Shimadzu, Kyoto, Japan). Chromatographic separation was achieved on a Raptor^TM Biphenyl column (2.1 × 100 mm, 2.7 μm) at 40 °C. The mobile phases consisted of water (mobile phase A) and methanol (mobile phase B), both containing 2 mM ammonium formate and 0.1% (v/v) formic acid. A flow rate of 0.3 mL/min was used with an elution gradient starting at 20% mobile phase B and holding for 0.2 min, followed by a linear increase to 95% mobile phase B over 2 min that was then maintained for 1 min, with a return to the initial condition in 0.2 min. The total chromatographic run time was 5 min.
In vitro t1/2 was calculated using to the following equation [60, 61]:(1) t1/2=ln(2)/k where k is the slope of the log-linear regression graph of the percentage of drug remaining as a function of time.
CLint, in vitro was calculated using to the following equation [60, 61]:(2) CLint, in vitro=0.693/t1/2×Vincubation/mmicrosomes where Vincubation indicates the volume of the incubation in μL and mmicrosomes indicates the mass of microsomal proteins added to the incubation solution in mg.
After determining CLint, in vitro, it was possible to calculate CLint, in vivo using allometric scaling, as follows:(3) CLint, in vivo=CLint, in vitro×mmicrosomes/gliver×mliver/kgper body weight where mmicrosomes is 61, 45, and 40 mg and represents the mass of microsomal protein per gram of liver (gliver) for rats, mice, and humans, respectively. The mliver is 40, 87.5, and 25.7 g/kg and represents the mass of liver per kilogram of body weight (kgper body weight) for rats, mice, and humans, respectively.
Metabolic stability was evaluated by linear regression analysis of the residual violacein after incubating 4 µM violacein with 2 mg/mL of HLMs, MLMs, and RLMs in the presence of the enzymatic cofactors required for CYP function in microsomes. Calculation of the in vitro violacein metabolic stability was achieved by plotting the remaining percentage of violacein on the y-axis and the incubation time on the x-axis (Figure 1a). […]

## O=C1NC(c2c[nH]c3ccc(O)cc23)=C/C1=C1\C(=O)Nc2ccccc21 [violacein]
parasitemia
  Reduction in parasitemia: 82%
Trichophyton rubrum
  MIC: 2 µg/mL (≈ 5.83 µM)
Candida albicans
  MIC: 8 µg/mL (≈ 23.3 µM)
Caco-2 cells
  pIC50: ~5.70
In vitro; 0 min, 2 µM, pH 7.4
  Ln Z: 4.605
In vitro; 2 µM, pH 7.4
  Slope (k), metabolism rate constant: y = −0.0032x + 4.3894 r^2 = 0.9651 Slope (k) = 0.0032
In vitro; 3 min, 2 µM, pH 7.4
  Ln Z: 4.462
In vitro; 5 min, 2 µM, pH 7.4
  Ln Z: 4.417
In vitro; 15 min, 2 µM, pH 7.4
  Ln Z: 4.316
In vitro; 30 min, 2 µM, pH 7.4
  Ln Z: 4.277
In vitro; 60 min, 2 µM, pH 7.4
  Ln Z: 4.183
In vitro; 120 min, 2 µM, pH 7.4
  Ln Z: 4.017
In vitro; microsomes, 0 h, 2 µM, pH 7.4
  Z (%), remaining percentage of violacein: 100%
In vitro; microsomes, 2 µM, pH 7.4
  CLint, in vivo: 6.58 mL/min/kg
In vitro; microsomes, 0.05 h, 2 µM, pH 7.4
  Z (%), remaining percentage of violacein: 87%
In vitro; microsomes, 5 min, 2 µM, pH 7.4
  Z (%), remaining percentage of violacein: 83%
In vitro; microsomes, 0.25 h, 2 µM, pH 7.4
  Z (%), remaining percentage of violacein: 75%
In vitro; microsomes, 0.5 h, 2 µM, pH 7.4
  Z (%), remaining percentage of violacein: 72%
In vitro; microsomes, 1 h, 2 µM, pH 7.4
  Z (%), remaining percentage of violacein: 66%
In vitro; microsomes, pH 7.4
  half-life at 2 µM: 3.6 h
  microsomal CLint at 2 µM: 6.4 µL/min/mg
In vitro; microsomes, pH 7.4, CLint, in vivo
  CLint scaled at 2 µM: 6.6 mL/min/kg
